Results published in patent US12723063B2, “GIPR-agonist compounds” (Eli Lilly and Company, priority 2019, dated 2026).
*1 amine or outer side, *2 acyl side, *3 side chain or, on linkers, in order; H or OH if unused. Where a SMILES comes first, the peptide text is derived from it. Side-chain parts run from the residue outwards. [ ]: non-standard residue; d: D form. The star is where a group is joined. C20 diacid = O=C(O)CCCCCCCCCCCCCCCCCCC(=O)*; C18 diacid = O=C(O)CCCCCCCCCCCCCCCCC(=O)*; αMePhe(2-F) = C[C@](N)(Cc1ccccc1F)C(=O)O; γGlu = O=C(O)[C@H](CCC(=O)[*:2])N[*:1]; 4Pal = N[C@@H](Cc1ccncc1)C(=O)O; αMeL = CC(C)C[C@](C)(N)C(=O)O; Iva = CC[C@](C)(N)C(=O)O; Orn = NCCC[C@H](N)C(=O)O; AEEA = NCCOCCOCC(=O)O; Aib = CC(C)(N)C(=O)O

How the values were obtained:
[1] = target: T1, human GIPR (Homo sapiens, UniProt P48546); experiment: [125I]-GIP binding, SPA with WGA beads, 0.1% bacitracin; conditions: geometric mean, read-out: hGIPR Ki
T1 construct: expressed in transfected cells; crude membranes
T1 sequence (P48546 22-466): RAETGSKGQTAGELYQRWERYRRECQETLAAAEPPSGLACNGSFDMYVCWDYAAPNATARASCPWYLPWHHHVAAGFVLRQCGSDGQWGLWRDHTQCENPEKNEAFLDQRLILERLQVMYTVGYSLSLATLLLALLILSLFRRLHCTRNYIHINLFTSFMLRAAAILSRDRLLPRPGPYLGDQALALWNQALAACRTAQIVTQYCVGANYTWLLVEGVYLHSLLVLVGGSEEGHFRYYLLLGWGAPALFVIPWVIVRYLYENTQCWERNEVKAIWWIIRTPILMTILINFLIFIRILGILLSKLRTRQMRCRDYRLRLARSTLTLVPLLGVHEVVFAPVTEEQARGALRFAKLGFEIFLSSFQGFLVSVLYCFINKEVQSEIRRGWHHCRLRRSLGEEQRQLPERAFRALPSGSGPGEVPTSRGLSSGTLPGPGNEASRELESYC
In short: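 Ki values are geometric means (SEM, n independent days), derived from four-parameter nonlinear regression of IC50. Membranes came from hGIPR-expressing CHO cells.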

[2] = target: T2, human glucose-dependent insulinotropic peptide receptor (GIPR) (Homo sapiens, UniProt P48546); experiment: cAMP functional assay (HTRF) in HEK293 cells in presence of 0.1% casein; type: cell-based; conditions: HEK293 cells expressing human GIPR, geometric mean, read-out: hGIPR cAMP Rel EC50 nM (SEM, n)
T2 construct: expressed in transfected cells; host or cells: HEK293
T2 sequence (P48546 22-466): T1 sequence (P48546 22-466)

Structure (SMILES)	Ki [1] [nM]	EC50 [2] [nM]
CC[C@H](C)[C@H](NC(=O)[C@H](Cc1ccccc1)NC(=O)[C@@H](NC(=O)CNC(=O)[C@H](CCC(=O)O)NC(=O)C(C)(C)NC(=O)[C@@H](N)Cc1ccc(O)cc1)[C@@H](C)O)C(=O)N[C@@H](CO)C(=O)N[C@@H](CC(=O)O)C(=O)N[C@@H](Cc1ccc(O)cc1)C(=O)N[C@@H](CO)C(=O)N[C@H](C(=O)N[C@@](C)(CC(C)C)C(=O)N[C@@H](CC(C)C)C(=O)N[C@@H](CC(=O)O)C(=O)N[C@@H](CCC(=O)O)C(=O)N[C@@H](CCCCNC(=O)COCCOCCNC(=O)COCCOCCNC(=O)CC[C@H](NC(=O)CCCCCCCCCCCCCCCCCCC(=O)O)C(=O)O)C(=O)N[C@@H](Cc1c[nH]cn1)C(=O)N[C@@H](CCC(N)=O)C(=O)NC(C)(C)C(=O)N[C@@H](CC(=O)O)C(=O)N[C@@H](Cc1ccccc1)C(=O)N[C@H](C(=O)N[C@@H](CCC(=O)O)C(=O)N[C@@H](Cc1ccncc1)C(=O)N[C@@H](CC(C)C)C(=O)N[C@@H](CC(C)C)C(=O)N[C@@H](C)C(=O)NCC(=O)NCC(=O)N1CCC[C@H]1C(=O)N[C@@H](CO)C(=O)N[C@@H](CO)C(=O)NCC(=O)N[C@@H](C)C(=O)N1CCC[C@H]1C(=O)N1CCC[C@H]1C(=O)N1CCC[C@H]1C(=O)N[C@@H](CO)C(N)=O)C(C)C)[C@@H](C)CC [Example 86]	0.0533	0.03
CC[C@H](C)[C@H](NC(=O)[C@H](CO)NC(=O)[C@H](Cc1ccc(O)cc1)NC(=O)[C@H](CC(=O)O)NC(=O)[C@H](CO)NC(=O)[C@@H](NC(=O)[C@](C)(CC)NC(=O)[C@@H](NC(=O)CNC(=O)[C@H](CCC(=O)O)NC(=O)C(C)(C)NC(=O)[C@@H](N)Cc1ccc(O)cc1)[C@@H](C)O)[C@@H](C)CC)C(=O)N[C@@](C)(CC(C)C)C(=O)N[C@@H](CC(C)C)C(=O)N[C@@H](CC(=O)O)C(=O)N[C@@H](CCCN)C(=O)N[C@@H](CCCCNC(=O)COCCOCCNC(=O)COCCOCCNC(=O)CC[C@H](NC(=O)CCCCCCCCCCCCCCCCCCC(=O)O)C(=O)O)C(=O)N[C@@H](Cc1c[nH]cn1)C(=O)N[C@@H](CCC(N)=O)C(=O)NC(C)(C)C(=O)N[C@@H](CC(=O)O)C(=O)N[C@@H](Cc1ccccc1)C(=O)N[C@H](C(=O)N[C@@H](CCC(=O)O)C(=O)N[C@@H](Cc1ccncc1)C(=O)N[C@@H](CC(C)C)C(=O)N[C@@H](CC(C)C)C(=O)N[C@@H](CCC(=O)O)C(=O)N[C@H](C(=O)NCC(=O)N1CCC[C@H]1C(=O)N[C@@H](CO)C(=O)N[C@@H](CO)C(=O)NCC(=O)N[C@@H](C)C(=O)N1CCC[C@H]1C(=O)N1CCC[C@H]1C(=O)N1CCC[C@H]1C(=O)N[C@@H](CO)C(N)=O)[C@@H](C)O)C(C)C [Example 77] (H-Y[Aib]EGT[Iva]ISDYSI[αMeL]LD[Orn]K([AEEA-AEEA-γGlu-C20 diacid])HQ[Aib]DFVE[4Pal]LLETGPSSGAPPPS-NH2)	0.0841	0.0265
CC[C@H](C)[C@H](NC(=O)[C@H](CO)NC(=O)[C@H](Cc1ccc(O)cc1)NC(=O)[C@H](CC(=O)O)NC(=O)[C@H](CO)NC(=O)[C@@H](NC(=O)[C@](C)(Cc1ccccc1F)NC(=O)[C@@H](NC(=O)CNC(=O)[C@H](CCC(=O)O)NC(=O)C(C)(C)NC(=O)[C@@H](N)Cc1ccc(O)cc1)[C@@H](C)O)[C@@H](C)CC)C(=O)N[C@@H](C)C(=O)N[C@@H](CC(C)C)C(=O)N[C@@H](CC(=O)O)C(=O)N[C@@H](CCCCN)C(=O)N[C@H](C(=O)N[C@@H](Cc1c[nH]cn1)C(=O)N[C@@H](CCC(N)=O)C(=O)NC(C)(C)C(=O)N[C@@H](CCC(=O)O)C(=O)N[C@@H](Cc1ccccc1)C(=O)N[C@H](C(=O)N[C@@H](CC(N)=O)C(=O)N[C@@H](Cc1ccc(O)cc1)C(=O)N[C@@H](CCCCNC(=O)COCCOCCNC(=O)COCCOCCNC(=O)CC[C@H](NC(=O)CCCCCCCCCCCCCCCCC(=O)O)C(=O)O)C(=O)N[C@@H](CC(C)C)C(=O)N[C@@H](C)C(=O)NCC(=O)NCC(=O)N1CCC[C@H]1C(=O)N[C@@H](CO)C(=O)N[C@@H](CO)C(=O)NCC(=O)N[C@@H](C)C(=O)N1CCC[C@H]1C(=O)N1CCC[C@H]1C(=O)N1CCC[C@H]1C(=O)N[C@@H](CO)C(N)=O)C(C)C)[C@@H](C)CC [Example 94] (H-Y[Aib]EGT[αMePhe(2-F)]ISDYSIALDKIHQ[Aib]EFVNYK([AEEA-AEEA-γGlu-C18 diacid])LAGGPSSGAPPPS-NH2)	0.031	0.00436
CC[C@H](C)[C@H](NC(=O)[C@H](CCCCN)NC(=O)[C@H](CC(=O)O)NC(=O)[C@H](CC(C)C)NC(=O)[C@](C)(CC(C)C)NC(=O)[C@@H](NC(=O)[C@H](CO)NC(=O)[C@H](Cc1ccc(O)cc1)NC(=O)[C@H](CC(=O)O)NC(=O)[C@H](CO)NC(=O)[C@@H](NC(=O)[C@H](Cc1ccccc1)NC(=O)[C@@H](NC(=O)CNC(=O)[C@H](CCC(=O)O)NC(=O)C(C)(C)NC(=O)[C@@H](N)Cc1ccc(O)cc1)[C@@H](C)O)[C@@H](C)CC)[C@@H](C)CC)C(=O)N[C@@H](Cc1c[nH]cn1)C(=O)N[C@@H](CCC(N)=O)C(=O)NC(C)(C)C(=O)N[C@@H](CC(=O)O)C(=O)N[C@@H](Cc1ccccc1)C(=O)N[C@H](C(=O)N[C@@H](CCC(=O)O)C(=O)N[C@@H](Cc1ccc(O)cc1)C(=O)N[C@@H](CCCCNC(=O)COCCOCCNC(=O)COCCOCCNC(=O)CC[C@H](NC(=O)CCCCCCCCCCCCCCCCCCC(=O)O)C(=O)O)C(=O)N[C@@H](CC(C)C)C(=O)N[C@@H](CCC(=O)O)C(=O)N[C@@H](CCC(N)=O)C(=O)NCC(=O)N1CCC[C@H]1C(=O)N[C@@H](CO)C(=O)N[C@@H](CO)C(=O)NCC(=O)N[C@@H](C)C(=O)N1CCC[C@H]1C(=O)N1CCC[C@H]1C(=O)N1CCC[C@H]1C(=O)N[C@@H](CO)C(N)=O)C(C)C [Example 92] (H-Y[Aib]EGTFISDYSI[αMeL]LDKIHQ[Aib]DFVEYK([AEEA-AEEA-γGlu-C20 diacid])LEQGPSSGAPPPS-NH2)	0.0331	0.0191
CC[C@H](C)[C@H](NC(=O)[C@H](CCCCN)NC(=O)[C@H](CC(=O)O)NC(=O)[C@H](CC(C)C)NC(=O)[C@](C)(CC(C)C)NC(=O)[C@@H](NC(=O)[C@H](CO)NC(=O)[C@H](Cc1ccc(O)cc1)NC(=O)[C@H](CC(=O)O)NC(=O)[C@H](CO)NC(=O)[C@@H](NC(=O)[C@H](Cc1ccccc1)NC(=O)[C@@H](NC(=O)CNC(=O)[C@H](CCC(=O)O)NC(=O)C(C)(C)NC(=O)[C@@H](N)Cc1ccc(O)cc1)[C@@H](C)O)[C@@H](C)CC)[C@@H](C)CC)C(=O)N[C@@H](Cc1c[nH]cn1)C(=O)N[C@@H](CCC(N)=O)C(=O)NC(C)(C)C(=O)N[C@@H](CC(=O)O)C(=O)N[C@@H](Cc1ccccc1)C(=O)N[C@H](C(=O)N[C@@H](CCC(=O)O)C(=O)N[C@@H](Cc1ccc(O)cc1)C(=O)N[C@@H](CCCCNC(=O)COCCOCCNC(=O)COCCOCCNC(=O)CC[C@H](NC(=O)CCCCCCCCCCCCCCCCCCC(=O)O)C(=O)O)C(=O)N[C@@H](CC(C)C)C(=O)N[C@@H](CCC(=O)O)C(=O)NCC(=O)NCC(=O)N1CCC[C@H]1C(=O)N[C@@H](CO)C(=O)N[C@@H](CO)C(=O)NCC(=O)N[C@@H](C)C(=O)N1CCC[C@H]1C(=O)N1CCC[C@H]1C(=O)N1CCC[C@H]1C(=O)N[C@@H](CO)C(N)=O)C(C)C [Example 5]	0.0771	0.0148
CC[C@H](C)[C@H](NC(=O)[C@H](CO)NC(=O)[C@H](Cc1ccc(O)cc1)NC(=O)[C@H](CC(=O)O)NC(=O)[C@H](CO)NC(=O)[C@@H](NC(=O)[C@](C)(Cc1ccccc1F)NC(=O)[C@@H](NC(=O)CNC(=O)[C@H](CCC(=O)O)NC(=O)C(C)(C)NC(=O)[C@@H](N)Cc1ccc(O)cc1)[C@@H](C)O)[C@@H](C)CC)C(=O)N[C@@H](CC(C)C)C(=O)N[C@@H](CC(C)C)C(=O)N[C@@H](CC(=O)O)C(=O)N[C@@H](CCCCN)C(=O)N[C@H](C(=O)N[C@@H](Cc1c[nH]cn1)C(=O)N[C@@H](CCC(N)=O)C(=O)NC(C)(C)C(=O)N[C@@H](CC(=O)O)C(=O)N[C@@H](Cc1ccccc1)C(=O)N[C@H](C(=O)N[C@@H](CCC(=O)O)C(=O)N[C@@H](Cc1ccncc1)C(=O)N[C@@H](CCCCNC(=O)COCCOCCNC(=O)COCCOCCNC(=O)CC[C@H](NC(=O)CCCCCCCCCCCCCCCCCCC(=O)O)C(=O)O)C(=O)N[C@@H](CC(C)C)C(=O)N[C@@H](CCC(=O)O)C(=O)N[C@@H](CCC(N)=O)C(=O)NCC(=O)N1CCC[C@H]1C(=O)N[C@@H](CO)C(=O)N[C@@H](CO)C(=O)NCC(=O)N[C@@H](C)C(=O)N1CCC[C@H]1C(=O)N1CCC[C@H]1C(=O)N1CCC[C@H]1C(=O)N[C@@H](CO)C(N)=O)C(C)C)[C@@H](C)CC [Example 121] (H-Y[Aib]EGT[αMePhe(2-F)]ISDYSILLDKIHQ[Aib]DFVE[4Pal]K([AEEA-AEEA-γGlu-C20 diacid])LEQGPSSGAPPPS-NH2)	0.103	0.0196
